Experiment [1] addresses Epidermal growth factor receptor (Homo sapiens, UniProt P00533, L858R/T790M). Put plainly: biochemical. Format: cell-based, Sf9.
Another experiment deals with A549. Put plainly: Antiproliferative activity against human A549 cells harbouring wild type EGFR incubated for 72 hrs by SRB assay. In kind it is functional, cell-based. As to conditions: A549, 72 h.
Another experiment concerns MCF7. In words: Antiproliferative activity against human MCF7 cells incubated for 72 hrs by SRB assay. In kind it is functional, cell-based. As to conditions: MCF7, 72 h.
Experiment [2] deals with Epidermal growth factor receptor (Homo sapiens, UniProt P00533, C797S/L858R/T790M). Put plainly: biochemical. Format: cell-based, Sf9.
Chain of Epidermal growth factor receptor (Homo sapiens, UniProt P00533, C797S/L858R/T790M) (P00533 25-1210 T790M/C797S/L858R limits assumed): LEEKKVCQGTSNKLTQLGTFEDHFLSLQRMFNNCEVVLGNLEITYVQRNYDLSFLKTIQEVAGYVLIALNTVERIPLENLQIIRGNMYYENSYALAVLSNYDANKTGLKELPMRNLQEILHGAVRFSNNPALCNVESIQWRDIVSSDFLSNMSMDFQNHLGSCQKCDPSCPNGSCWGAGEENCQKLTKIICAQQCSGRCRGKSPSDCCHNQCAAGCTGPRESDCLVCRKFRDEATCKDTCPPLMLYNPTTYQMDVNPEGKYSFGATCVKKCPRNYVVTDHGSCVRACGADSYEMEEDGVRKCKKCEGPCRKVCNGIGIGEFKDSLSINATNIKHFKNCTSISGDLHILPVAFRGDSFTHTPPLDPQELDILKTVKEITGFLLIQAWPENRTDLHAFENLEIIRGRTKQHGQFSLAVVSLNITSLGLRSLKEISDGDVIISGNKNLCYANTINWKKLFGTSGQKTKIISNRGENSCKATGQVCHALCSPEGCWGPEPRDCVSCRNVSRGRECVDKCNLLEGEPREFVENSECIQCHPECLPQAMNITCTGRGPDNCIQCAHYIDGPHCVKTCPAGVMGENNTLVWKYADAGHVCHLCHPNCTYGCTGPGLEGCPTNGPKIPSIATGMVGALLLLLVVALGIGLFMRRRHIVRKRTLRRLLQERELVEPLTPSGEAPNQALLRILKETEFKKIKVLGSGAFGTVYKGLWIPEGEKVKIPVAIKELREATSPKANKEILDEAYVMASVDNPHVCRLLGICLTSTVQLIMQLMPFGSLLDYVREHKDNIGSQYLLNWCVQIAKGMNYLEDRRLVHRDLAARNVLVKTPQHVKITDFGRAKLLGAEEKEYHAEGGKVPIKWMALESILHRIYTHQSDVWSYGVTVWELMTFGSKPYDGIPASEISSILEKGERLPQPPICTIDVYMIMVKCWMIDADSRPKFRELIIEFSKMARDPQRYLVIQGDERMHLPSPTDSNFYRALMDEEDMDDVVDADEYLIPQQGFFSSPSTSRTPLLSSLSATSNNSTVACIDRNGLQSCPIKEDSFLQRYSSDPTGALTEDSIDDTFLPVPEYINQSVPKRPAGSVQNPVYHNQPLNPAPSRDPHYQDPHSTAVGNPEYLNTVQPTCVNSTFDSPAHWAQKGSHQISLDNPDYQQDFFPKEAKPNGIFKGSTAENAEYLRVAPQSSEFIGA
In experiment [3] the test system is NCI-H1975. Put plainly: Antiproliferative activity against human NCI-H1975 cells assessed as induction of NO production at 100 uM incubated for 150 mins by Griess reagent based assay. Format: functional, cell-based.
Experiment [4] relates to NCI-H1975. Put plainly: Antiproliferative activity against human NCI-H1975 cells incubated for 72 hrs by MTS assay. Format: functional, cell-based. As to conditions: NCI-H1975, 72 h.
Experiment [5] in a line: Antiproliferative activity against human KB-VIN10 cells incubated for 72 hrs by SRB assay. Conditions: KB-VIN10, 72 h. In kind it is functional, cell-based.
Another experiment deals with MDA-MB-231. Put plainly: Antiproliferative activity against human MDA-MB-231 cells incubated for 72 hrs by SRB assay. In kind it is functional, cell-based. Conditions: MDA-MB-231, 72 h.
Experiment [6] concerns NCI-H1975. Put plainly: cells. Format: functional, cell-based. Conditions: Homo sapiens, NCI-H1975, 72 h.
The target of experiment [7] is Epidermal growth factor receptor (Homo sapiens, UniProt P00533). Put plainly: biochemical. In kind it is cell-based, Sf9.
Chain of Epidermal growth factor receptor (Homo sapiens, UniProt P00533) (P00533 whole entry): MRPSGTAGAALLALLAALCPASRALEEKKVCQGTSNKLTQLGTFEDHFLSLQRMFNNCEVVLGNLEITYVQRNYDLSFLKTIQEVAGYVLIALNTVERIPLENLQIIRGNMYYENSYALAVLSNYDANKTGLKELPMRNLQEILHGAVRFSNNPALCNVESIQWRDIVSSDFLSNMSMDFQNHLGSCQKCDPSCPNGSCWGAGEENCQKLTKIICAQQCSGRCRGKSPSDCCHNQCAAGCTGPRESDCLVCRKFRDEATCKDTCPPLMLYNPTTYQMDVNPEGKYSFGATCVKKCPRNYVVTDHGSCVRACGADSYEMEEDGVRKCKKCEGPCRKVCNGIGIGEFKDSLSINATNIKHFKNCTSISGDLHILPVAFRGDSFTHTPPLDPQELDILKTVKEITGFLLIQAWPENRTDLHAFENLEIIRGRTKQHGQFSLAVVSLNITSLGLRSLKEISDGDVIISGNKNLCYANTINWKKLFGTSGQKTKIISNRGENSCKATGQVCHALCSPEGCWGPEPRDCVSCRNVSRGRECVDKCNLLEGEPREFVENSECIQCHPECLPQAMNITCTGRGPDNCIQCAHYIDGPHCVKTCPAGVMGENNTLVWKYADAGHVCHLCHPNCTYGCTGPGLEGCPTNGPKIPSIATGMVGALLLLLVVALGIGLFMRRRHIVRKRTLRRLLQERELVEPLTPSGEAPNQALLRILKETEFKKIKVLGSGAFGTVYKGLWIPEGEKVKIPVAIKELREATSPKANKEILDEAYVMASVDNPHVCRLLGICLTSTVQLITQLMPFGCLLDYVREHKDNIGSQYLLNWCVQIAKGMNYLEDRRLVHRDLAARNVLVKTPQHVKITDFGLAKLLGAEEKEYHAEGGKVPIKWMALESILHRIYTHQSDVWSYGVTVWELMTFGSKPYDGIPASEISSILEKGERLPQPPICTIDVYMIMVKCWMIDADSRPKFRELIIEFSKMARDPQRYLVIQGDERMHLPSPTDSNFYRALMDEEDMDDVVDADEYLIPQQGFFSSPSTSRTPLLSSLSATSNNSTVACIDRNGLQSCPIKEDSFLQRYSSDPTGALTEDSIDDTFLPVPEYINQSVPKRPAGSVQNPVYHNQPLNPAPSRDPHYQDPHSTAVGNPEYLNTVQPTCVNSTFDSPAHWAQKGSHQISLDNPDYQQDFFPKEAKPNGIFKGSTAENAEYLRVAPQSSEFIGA
Description: Inhibition of C-terminal His-tagged/ N-terminal GST-tagged recombinant human EGFR (668 to 1210 residues) expressed in a Baculovirus infected Sf9 cell expression system using poly-EY as substrate incubated for 30 mins by ADP-Glo kinase assay
A further experiment concerns KB. In words: Antiproliferative activity against human KB cells incubated for 72 hrs by SRB assay. In kind it is functional, cell-based.
Experiment [8] concerns NCI-H1975. In words: Antiproliferative activity against human NCI-H1975 cells assessed as induction of NO production at 25 uM preincubated for 1 hr with hemoglobin followed by compound addition and measured after 48 hrs by Griess reagent based assay. In kind it is functional, cell-based.

Active and inactive are the calls of the source. The calls are words filed in the database; no cut-off is given here.

Chain of Epidermal growth factor receptor (Homo sapiens, UniProt P00533, L858R/T790M) (P00533 25-1210 T790M/L858R limits assumed): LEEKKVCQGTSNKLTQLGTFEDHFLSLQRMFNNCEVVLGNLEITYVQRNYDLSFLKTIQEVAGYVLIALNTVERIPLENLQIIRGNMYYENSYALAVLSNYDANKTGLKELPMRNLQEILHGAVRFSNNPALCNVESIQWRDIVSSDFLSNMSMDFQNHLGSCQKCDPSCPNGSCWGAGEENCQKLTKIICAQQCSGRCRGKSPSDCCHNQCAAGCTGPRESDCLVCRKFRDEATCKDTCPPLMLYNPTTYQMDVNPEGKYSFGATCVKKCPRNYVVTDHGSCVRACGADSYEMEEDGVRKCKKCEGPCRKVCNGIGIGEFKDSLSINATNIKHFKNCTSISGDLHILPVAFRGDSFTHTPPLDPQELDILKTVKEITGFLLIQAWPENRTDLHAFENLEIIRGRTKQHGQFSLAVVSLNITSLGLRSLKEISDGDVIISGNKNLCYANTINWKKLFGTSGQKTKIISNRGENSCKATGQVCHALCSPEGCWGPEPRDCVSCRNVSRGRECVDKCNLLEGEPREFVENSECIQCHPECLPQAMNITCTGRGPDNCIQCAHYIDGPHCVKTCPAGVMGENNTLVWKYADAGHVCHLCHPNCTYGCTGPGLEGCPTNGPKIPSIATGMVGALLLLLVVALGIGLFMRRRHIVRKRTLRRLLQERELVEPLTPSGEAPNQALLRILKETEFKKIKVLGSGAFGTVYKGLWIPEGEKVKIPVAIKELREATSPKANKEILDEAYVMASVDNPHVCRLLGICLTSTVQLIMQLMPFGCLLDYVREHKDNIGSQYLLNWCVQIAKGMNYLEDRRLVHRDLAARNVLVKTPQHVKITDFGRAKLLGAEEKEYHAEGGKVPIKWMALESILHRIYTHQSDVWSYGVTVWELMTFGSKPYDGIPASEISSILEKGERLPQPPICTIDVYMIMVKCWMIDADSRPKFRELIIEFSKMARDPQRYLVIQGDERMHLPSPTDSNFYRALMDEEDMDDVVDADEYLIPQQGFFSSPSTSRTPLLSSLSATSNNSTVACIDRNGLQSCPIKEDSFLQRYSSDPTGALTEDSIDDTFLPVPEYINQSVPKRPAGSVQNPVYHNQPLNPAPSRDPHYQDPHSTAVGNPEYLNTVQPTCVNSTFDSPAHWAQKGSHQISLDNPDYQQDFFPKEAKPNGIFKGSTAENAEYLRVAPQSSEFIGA

On to `CC1(C)CC[C@]2(C(=O)OCCO[N+](=O)[O-])CC[C@]3(C)C(=CC[C@@H]4[C@@]5(C)CC[C@H](O)C(C)(C)[C@@H]5CC[C@]43C)[C@@H]2C1`, for which the IC50 was over 20 µM in experiment [1]; 4.7 µM in the experiment on A549; 5.5 µM with MCF7; 0.03 µM in experiment [2]; over 10 µM in the experiment on NCI-H1975 [4]; 6.4 µM in experiment [5]. Further, the IC50 in the experiment with MDA-MB-231 is 5.5 µM; with NCI-H1975 [6], over 10 µM; in experiment [7], 0.11 µM; with KB, 5 µM. For the same compound, the result with NCI-H1975 [3] was Active.

On to `CC(=O)O[C@H]1CC[C@]2(C)[C@H]3CC=C4[C@@H]5CC(C)(C)CC[C@]5(C(=O)OCCCCO[N+](=O)[O-])CC[C@@]4(C)[C@]3(C)CC[C@H]2C1(C)C`, for which the IC50 in experiment [1] was over 20 µM; with A549, 4.8 µM; with MCF7, 5.2 µM; in experiment [2] it was 0.02 µM; in the experiment with NCI-H1975 [4], over 10 µM; in experiment [5] it was 5.1 µM. In addition, the IC50 in the experiment on MDA-MB-231 is 5.4 µM; with NCI-H1975 [6], over 10 µM; in experiment [7], 0.1 µM; in the experiment on KB, 5.3 µM. For the same compound, the result with NCI-H1975 [3] was Active. For the same compound, the outcome in the experiment with NCI-H1975 [8] was inactive.

For the compound `CC(=O)OC[C@@]1(C)[C@@H]2CC[C@]3(C)[C@H](CC=C4[C@@H]5CC(C)(C)CC[C@]5(C(=O)OCCCCO[N+](=O)[O-])CC[C@]43C)[C@@]2(C)CC[C@@H]1OC(C)=O`, the IC50 in experiment [1] was over 20 µM; in the experiment with A549 it was 4.6 µM; with MCF7 it was 5 µM; in experiment [2] it was 0.01 µM; with NCI-H1975 [4], 8.1 µM; in experiment [5], 4.8 µM. In addition, the IC50 with MDA-MB-231 came to 5.2 µM; in the experiment on NCI-H1975 [6] it was 7.6 µM; in experiment [7], 0.06 µM; in the experiment on KB, 5.1 µM. For the same compound, in the experiment on NCI-H1975 [3], the result was Active. The outcome in the experiment with NCI-H1975 [8] was inactive.

Values taken from ChEMBL document CHEMBL4414650, “Discovery of an Oleanolic Acid/Hederagenin-Nitric Oxide Donor Hybrid as an EGFR Tyrosine Kinase Inhibitor for Non-Small-Cell Lung Cancer” (J Nat Prod, 2019).
